Experimental data taken from patent US20030144335A1, “Preventive or remedial agent for allergic disease and medical water-based liquid preparation, eye drop, and nasal drop” (priority 2001, published 2003).

Test system: experimental allergic conjunctivitis model
Experiment: Experimental allergic conjunctivitis model (dye leakage in palpebral conjunctiva of passively sensitized guinea pigs)
Type: in vivo, guinea pig
Conditions: at each concentration (0.01%, 0.1%, 1%); dose relationship confirmed
Procedure: In the test, Hartley male guinea pigs (each group consisting of 8 guinea pigs) at age 6 weeks were used.
Antiserum made by the following method was used: According to the method of Levine et al (J.Immunol.,106,29-33(1971)), the guinea pigs were sensitized with 4 times-administration of physiological saline 1 ml containing 10 μg of ovalbumin (hereafter called “OA”) and 5 mg of aluminum hydroxide via the peritoneal cavity at intervals of 2 weeks. 1 week after the final sensitization, blood was sampled from the hind leg, and left at room temperature for 30 minutes. The blood was then left at 4° C. for 4-5 hours, and serum was then collected by centrifugation at 1680×9.8 m/s^2 g for 15 minutes. The serum obtained was frozen and stored at −80° C.
20 μl/site of Anti OA guinea pig serum (64 antibody titer in PCA (passive cutaneous anaphylaxis reaction)) was diluted with an equal amount of physiological saline. 20 μl/site of the solution was injected intradermally in binocular palpebral conjunctiva of the guinea pig under ether anesthesia. Thus, passive sensitization was carried out. […]
Then, 8 ml of 0.6 mol/ml of liquid mixture of phosphoric acid and acetone(5 to 13) was added and shaken; thereafter, the mixture was stirred using a homogenizer, and centrifuged at 1680×9.8/s^2 for 15 minutes. The leakage pigment quantity was colorimetered at 620 nm using a spectrophotometer. […]

## CCS(=O)(=O)CCn1c([N+](=O)[O-])cnc1C [tinidazole, 1-(2-ethylsulfonyl)ethyl-2-methyl-5-nitro-1H-imidazole]
  inhibitory effect on dye leakage (allergic conjunctivitis): significant inhibitory effect
